US20150328329A1, “LIGANDS THAT TARGET HCV-E2 BINDING SITES ON CD81 AND THERAPEUTIC METHODS USING THEM” (American University of Cairo, priority 2012, published 2015)

Columns and labels:
recombinant CD81-LEL = target: T1, recombinant CD81-LEL (Homo sapiens, UniProt P60033); experiment: Dual polarization interferometry (DPI) binding of ligands to immobilized recombinant CD81-LEL; conditions: for DPI Response (Radians), ligand added to CD81 protein: Table B and b111
T1 construct: the large extracellular loop of CD81 (CD81-LEL); GST; His; Shoshana Levy Lab, Stanford (gift)
T1 sequence (P60033 113-201 limits assumed): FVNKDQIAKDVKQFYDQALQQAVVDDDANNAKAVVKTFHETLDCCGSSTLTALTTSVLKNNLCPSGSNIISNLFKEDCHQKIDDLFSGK
Protocol: DPI analyses were performed using an AnaLight 4D workstation (Farfield Group, Manchester UK). The recombinant CD81-LEL was immobilized onto a Thiol AnaChip using Sulfo-GMBS as a cross-linker in PBS running buffer. Non-specific sites were blocked with digested casein. TRIS was used to cap the cross-linker, blocking any additional amines from covalently binding to the cross-linker on the chip surface. Ligands were prepared as a 20 mM stock solutions in DMSO. Each ligand was diluted to a final concentration of 500 μM in PBS just prior to injection (final DMSO concentration was 2.5%). PBS and DMSO mixed in the same ratio were used as a blank. Data collection and analysis were performed using the AnaLight Resolver.
Six of the more interesting ligand candidates being considered for use in creating a ligand conjugate (three calculated to bind to Site 1 and three calculated to bind to Site 2) were further tested to confirm binding using a second experimental technique, dual polarization interferometry. The results, shown in FIG. 6, confirmed that all six ligands bound to the protein. The relative rank in strength of binding of the Site 1 and 2 ligands, as determined by DPI, were also similar to the ranking obtained by SPR or calculated by AutoDock for the majority of the ligands. […] One reason for this observed difference in the DPI response may relate to conformational changes in the protein that occur when the small molecules bind. The change in radians measured using DPI when a ligand binds to a protein is known to result from a combination of two effects: 1) the resulting increase in mass/volume when the ligand binds to the protein on the surface of the chip and 2) a conformational change in the protein induced by the binding of the ligand. Molecules binding in the deeper cavity would be expected to have more and stronger contacts with the protein than ligands sitting exposed to solvent in shallow cavities or surface binding sites. […]

[1] = target: T2, recombinant CD81-LEL (GST tag) (Homo sapiens, UniProt P60033); experiment: Surface plasmon resonance (Biacore T200) binding of ligands to immobilized recombinant CD81-LEL; conditions: Table A; ligand 600 μM in PBS-0.05% Tween-80; CD81-LEL-GST on CM5 chip
T2 construct: the large extracellular loop of CD81 (CD81-LEL); gift of Dr. Shoshana Levy, Stanford University
T2 sequence (P60033 113-201 limits assumed): T1 sequence (P60033 113-201 limits assumed)
Protocol: SPR analysis was performed using a Biacore T200 workstation (GE Healthcare, NJ, USA). A recombinant form of the CD81-LEL protein with a GST tag (generously provided by Dr. Shoshana Levy, Stanford University) was used to confirm, using an established experimental technique, the binding of several ligands to the protein. Briefly, 10 μM CD81-LEL-GST diluted into 10 mM Na-Acetate buffer pH 4.5 was immobilized for 15 min at a flow speed of 5 μl/min onto a CM5 sensor chip using amine-coupling (EDC-NHS). Approximately 20,000 RU of protein were immobilized on the chip. The ligands were prepared as 600 μM solutions in PBS-0.05% Tween-80 (the running buffer) and they were introduced to the protein using a pre-programmed 3 minute association and 1 minute dissociation interval.
The binding affinity of the most tightly bound ligand in the group selected for ligand conjugate design (Ligand 1) was estimated using data collected from a series of SPR binding experiments conducted at different ligand concentrations. To obtain the kinetic and affinity data needed to estimate the Kd, the original ligand was diluted serially with running buffer to produce seven different ligand concentrations: 1024 μM, […], 256 μM, 128 μM, 64 μM, 32 μM and 0 μM. Data were fitted using a monovalent binding model.
A total of 36 ligands were tested experimentally using surface Plasmon resonance (on a Biacore T200 instrument) to identify which of the molecules calculated to bind to Sites 1 and 2 on CD81 actually bind to a recombinant form of the protein (CD81-LEL). Twenty-six of the molecules provided a positive change in response units (RU) upon introduction to a chip containing the immobilized protein (Table A), indicating the ligands bound to the protein. The measured responses for the ligands that bound varied from 2.3 to 78.4 RU. Those ligands providing the largest responses tended to be molecules that were calculated to bind more deeply inside cavities in Site 1 (ligands 30930, 98026, 7436, 5069), Site 2 (ligands 127947, 38743) or Site 4 (ligands 78623, 16631).
Experimental analysis of ligand binding to recombinant CD81 LEL. Forty ligands calculated by AutoDock to bind to sites 1 and 2 on CD81-LEL were tested experimentally using surface Plasmon resonance as described in the Materials and Methods section. Ligand code numbers are those assigned by the National Cancer Institute. […] Because the binding experiments were performed by passing the same concentration of each ligand sequentially across the same protein coated chip using both techniques, the magnitude of the responses can be used to provide an approximate ranking of binding strength.

[2] = target: T3, native CD81 on Raji cells (Homo sapiens, UniProt P60033); experiment: Competition assay: inhibition of FITC-labeled JS-81 anti-CD81 antibody binding to native CD81 on live Raji cells (flow cytometry); assay type: cell-based
T3 construct: endogenous in cells; host or cells: Raji (human B cell line)
T3 sequence (P60033 1-236): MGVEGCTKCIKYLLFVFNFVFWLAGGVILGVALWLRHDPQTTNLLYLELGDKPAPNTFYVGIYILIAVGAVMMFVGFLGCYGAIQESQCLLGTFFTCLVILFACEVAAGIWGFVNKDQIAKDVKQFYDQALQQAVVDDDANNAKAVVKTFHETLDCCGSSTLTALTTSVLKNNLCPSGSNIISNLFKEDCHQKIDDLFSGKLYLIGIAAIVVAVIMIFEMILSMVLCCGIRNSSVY
Source text: A subset of these ligands and some of those listed in the patent have been tested to identify those ligands that bind to the correct region of the CD81 protein and for binding to native CD81 on living cells (a Raji cell line). This assay tests three concentrations of the ligand to determine if the ligand is capable of inhibiting the binding of an antibody called JS-81. This antibody is known to bind to the region of the CD81 protein we have targeted. If the ligand decreases JS-81 binding as you increase the concentration of the ligand, it is 1) binding to native CD81 on the Raji cells and 2) it is binding to the correct region of the protein.
For antibody neutralization assay Raji cells were used, a human B cell line that expressed high amounts of CD81 on the surface (data not shown). Cells were grown in RPMI medium (10% FCS, 1% penicillin/streptomycin, 1% L-glutamine, 1% non-essential amino acids, 1% sodium pyruvate, pH 7.4, at 37° C. with 5% CO2). 2×10^5 cells were incubated with or without different concentrations (50 μM, 100 μM, 400 μM and 1 mM) of indicated inhibitor for 20 min at room temperature, subsequently 1 ul (16 ng/μl) of FITC-labeled anti CD81 antibody (BD Pharmingen, 551108) was added to the cells and incubated for 20 min (antibody titration was performed to obtain a working dilution range, data not shown). Cells were washed and analyzed by flow cytometry using fluorescence-activated cell sorting (FACS) (BD FACSCalibur, software: Cell Quest Pro). Mean Fluorescence Intensity MFI was calculated using Flowjo software (TreesStar, www.flowjo.com).

[3] = ligand 500 μM in PBS, 2.5% DMSO

Q: How did the “DPI Radians” value (recombinant CD81-LEL; Table A, ligand 500 μM in PBS, 2.5% DMSO) turn out when `NC(=S)Nc1cccc(Cl)c1` [Ligand 164965] was run?
A: 0.7494 Radians

Q: What about the “DPI Response (Radians), ligand added to CD81 protein” value (“DPI Response (Radians), ligand added” below) (recombinant CD81-LEL; [3]) of the same molecule?
A: 0.7494 Radians

Q: How did the “SPR Response Units” value [1] turn out when `Nc1nc(O)c(CC(=O)O)s1` [Ligand 70980] was run?
A: 14.1 RU

Q: For `CC(C)=CCC1=C(OCC(=O)O)C(=O)c2ccccc2C1=O` [Ligand 98026], which “SPR Response Units” value [1] is on record?
A: 50 RU

Q: And the “DPI Response (Radians), ligand added” value (recombinant CD81-LEL; [3])?
A: 1.1918 Radians

Q: And the “Inhibition of JS-81 Binding (%)” value ([2]; 50 μM ligand)?
A: 0%

Q: And the “Inhibition of JS-81 Binding (%)” value ([2]; 100 μM ligand)?
A: 0%

Q: And the “Inhibition of JS-81 Binding (%)” value ([2]; 400 μM ligand)?
A: 21%

Q: For `CC(C)(C)c1ccc(NS(=O)(=O)c2ccc(N)cc2)cc1` [Ligand 7436], which “SPR Response Units” value [1] is on record?
A: 78.4 RU

Q: And the “Inhibition of JS-81 Binding (%)” value ([2]; 50 μM ligand)?
A: 0%

Q: And the “Inhibition of JS-81 Binding (%)” value ([2]; 100 μM ligand)?
A: 12%

Q: And the “Inhibition of JS-81 Binding (%)” value ([2]; 400 μM ligand)?
A: 11%

Q: `NC(=O)CCC(C(=O)O)N1C(=O)c2ccc(O)cc2C1=O` (centres unmarked) [Ligand 78623] was tested. Which “SPR Response Units” value [1] did it give?
A: 54.5 RU

Q: `O=C(O)CC1OCC=C2CN3CCC45C6=CC(=O)C(=O)C([N+](=O)[O-])=C6NC4C1C2CC35` (centres unmarked) [Ligand 5069] was tested. Which “SPR Response Units” value [1] did it give?
A: 67.5 RU

Q: How did the “SPR Response Units” value [1] turn out when `O=C(O)CCCCC1SCC2NC(=O)NC21` (centres unmarked) [Ligand 63865] was run?
A: 58 RU

Q: How did the “DPI Response (Radians), ligand added” value (recombinant CD81-LEL; [3]) turn out when `O=C(OCc1ccccc1)c1ccccc1O` [Benzyl salicylate, reference compound] was run?
A: 0.5818 Radians

Q: What about the “DPI Response (Radians), ligand added” value (recombinant CD81-LEL; ligand 500 μM in PBS, 2.5% DMSO, listed as benzyl salicylate) of the same molecule?
A: 0.58 Radians

Q: Which results are given for `COc1cc(-c2ccc(Nc3ccccc3C(=O)O)c(OC)c2)ccc1Nc1ccccc1C(=O)O` [Ligand 73735]?
A: SPR Response Units [1]: 1957.8 RU; Inhibition of JS-81 Binding (%) ([2]; 50 μM ligand): 0%; Inhibition of JS-81 Binding (%) ([2]; 100 μM ligand): 0%; Inhibition of JS-81 Binding (%) ([2]; 400 μM ligand): 24%

Q: For `CC(C)OC1CCCC(O)C1CC(=O)O` (centres unmarked) [Ligand 25368], which “SPR Response Units” value [1] is on record?
A: 13.3 RU

B1: E2 Protein: HCV E2 envelope glycoprotein that binds CD81 (protein)
chain: QTHITGGSTAHAAAGLANLFSMGPKQDIRLINTNGSWHINRTALNCNESLNTGWVAGLLYYNKFNSSGCSERLASCRPLTDFAQGWGPISYANGSGPDQRPYCWHYPPRPCGIVPAKSVCGPVYCFTPSPVVVGTTDRSGAPTYSWGENETDVFILNNTRPPLGNWFGCTWMNSSGFTKVCGAPPCVIGGVGNNTLRCPTDCFRKHPEATYSRCGSGPWITPRCLVNYPYRLWHYPCTINYTIFKVRMYVGGVEHRLEAACNWTRGERCDLEDRDRSELSPLLLSTTQWQVLPCSFTTLPALSTGLIHLHQNIVDVQYLYGVGSSIASWAIKWDYVVLLFLLLADARVCSCLWMMLLISQAEA
Q: With B1 as the molecule, how does the “DPI Binding Response (Radians), molecule added alone to CD81” value (recombinant CD81-LEL; Table D, single molecule added to CD81) read?
A: 4.1402 Radians
